Measured values as given in PMC2724842 (Biochemistry, 2009).
Like-named read-outs stand apart in the source and are kept apart here.

Columns and labels:
WT MtIPMS = WT MtIPMS (Mycobacterium tuberculosis, UniProt P9WQB3); assay: Steady-state kinetic analysis; format: biochemical
WT IPMS = WT IPMS (Mycobacterium tuberculosis, UniProt P9WQB3); format: binding; conditions: ITC
wild-type MtIPMS = wild-type MtIPMS (Mycobacterium tuberculosis, UniProt P9WQB3); format: biochemical
Chain of wild-type MtIPMS (P9WQB3 whole entry): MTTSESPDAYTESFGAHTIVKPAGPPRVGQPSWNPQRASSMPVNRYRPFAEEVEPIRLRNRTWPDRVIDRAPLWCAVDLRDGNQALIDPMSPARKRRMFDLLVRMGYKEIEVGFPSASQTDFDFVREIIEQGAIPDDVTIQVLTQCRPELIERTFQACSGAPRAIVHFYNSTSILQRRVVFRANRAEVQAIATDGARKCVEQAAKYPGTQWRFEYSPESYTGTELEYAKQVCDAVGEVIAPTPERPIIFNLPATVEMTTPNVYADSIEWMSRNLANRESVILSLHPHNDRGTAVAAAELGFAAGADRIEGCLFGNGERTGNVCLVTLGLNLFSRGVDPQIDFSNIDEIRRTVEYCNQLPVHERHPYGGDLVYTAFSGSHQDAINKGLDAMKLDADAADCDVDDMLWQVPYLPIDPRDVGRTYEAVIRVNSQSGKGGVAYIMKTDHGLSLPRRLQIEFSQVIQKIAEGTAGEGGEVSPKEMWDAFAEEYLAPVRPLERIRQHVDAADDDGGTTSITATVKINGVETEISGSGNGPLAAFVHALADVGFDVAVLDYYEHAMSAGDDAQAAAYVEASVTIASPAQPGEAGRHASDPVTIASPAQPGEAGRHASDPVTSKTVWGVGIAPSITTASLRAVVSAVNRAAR

Chain of WT IPMS (P9WQB3 whole entry): as above
Chain of WT MtIPMS (P9WQB3 whole entry): as above

**Q.** What does the source list for `CC(=O)SCCNC(=O)CCNC(=O)[C@H](O)C(C)(C)COP(=O)(O)OP(=O)(O)OC[C@H]1O[C@@H](n2cnc3c(N)ncnc32)[C@H](O)[C@@H]1OP(=O)(O)O` [Acetyl-CoA, acetyl-coenzyme A]?
**A.** Km (WT MtIPMS; read-out: K1 (Km), varied substrate Acetyl-CoA): 24 ± 2 µM; kcat1 (kcat) (WT MtIPMS; varied substrate Acetyl-CoA): 2.72 ± 0.05 s⁻¹

**Q.** What does the source list for `CC(C)C[C@H](N)C(=O)O` [L-leucine]?
**A.** N (stoichiometry for binding) (WT IPMS): 0.86 ± 0.02; ΔH (WT IPMS): 0.774 ± 0.02 kcal/mol; ΔS (WT IPMS): 27.8 cal/mol/K; activity retained at saturating L-leucine (wild-type MtIPMS): approximately 10%; β (fractional activity at saturating inhibitor) (wild-type MtIPMS): 0.1

**Q.** `CC(C)C(=O)C(=O)O` [α-KIV, α-ketoisovalerate] was tested. Which Km (WT MtIPMS; read-out: K1 (Km), varied substrate α-KIV) did it give?
**A.** 7.1 ± 0.5 µM

**Q.** What about the “kcat1 (kcat)” value (WT MtIPMS; varied substrate α-KIV) of the same compound?
**A.** 2.53 ± 0.05 s⁻¹
